Measurements as given in paper PMC9106635, “Stimulation of the atypical chemokine receptor 3 (ACKR3) by a small-molecule agonist attenuates fibrosis in a preclinical liver but not lung injury model” (Cellular and Molecular Life Sciences: CMLS, 2022).

Assays:
hCCR5 = molecular target: T1, hCCR5 (Homo sapiens, UniProt P51681); experiment: Ca2+ mobilization assay, U87.CD4.CCR5 cells, CCL5-induced; assay type: cell-based; settings: antagonism of CCL5 response
T1 construct: expressed in transfected cells; host or cells: U87.CD4.CCR5
Procedure: The calcium (Ca^2+) mobilization assay was described in detail before. Briefly, U87.CD4.CXCR4 or U87.CD4.CCR5 cells (2 × 10^4 cells per well in DMEM/10% FBS/0.01 M HEPES) were seeded in gelatin-coated (Sigma-Aldrich; 0.1% gelatin in DPBS) black-walled 96-well plates and incubated overnight at 37 °C and 5% CO2. The next day, cells were loaded with the fluorescent Ca^2+ indicator Fluo-2 acetoxymethyl (AM) ester (4 μM final concentration; Abcam) and incubated at RT in the dark for 45 min. Then, cells were washed with assay buffer (see above) and subsequently incubated with different concentrations of compound for ~ 10 min prior to addition of 6.25 nM CXCL12 (in case of CXCR4) or 6.4 nM CCL5 (in case of CCR5). Fluctuations in intracellular Ca^2+ levels were measured in real time by the FLIPR Tetra® device (Molecular Devices) in all 96 wells simultaneously. The response (Relative Light Units, RLUs) over baseline was calculated (ScreenWorks 4.0® software, Molecular Devices) by dividing the RLUs by a base line value measured just before addition of CXCL12 or CCL5, respectively. Inhibition of the Ca^2+ response was determined taking into account negative (i.e., untreated cells without stimulation) and positive (i.e., untreated cells stimulated with either CXCL12 or CCL5) control samples.

[1] = set-up: method as in PMID 29627981; settings: cited from earlier work
hCXCR4 = hCXCR4 (Homo sapiens, UniProt P61073); experiment: CXCL12^AF647 competition binding, Jurkat cells
Procedure: (§1) Binding affinity to human (h)CXCR4 and human (h)ACKR3 was investigated with a competition binding assay using CXCL12^AF647 (Almac, UK) as the tracer molecule. Jurkat cells (human T lymphocytic cell line, hCXCR4 positive) or U87.CD4.ACKR3 cells (human glioblastoma cell line, hACKR3 positive) were resuspended in assay buffer [Hank’s Balanced Salt Solution (HBSS, Thermo Fisher Scientific), 20 mM HEPES buffer, 0.2% bovine serum albumin (Sigma-Aldrich), pH 7.4] at 3 × 10^5 cells per sample and treated with increasing concentrations of compound at RT for 15 min. A fixed amount of CXCL12^AF647 (2.9 nM and 1.45 nM in case of hCXCR4 and hACKR3, respectively) was added and cells were incubated at RT for 30 min protected from light. Cells were finally fixed in 1% paraformaldehyde in DPBS and the CXCL12^AF647 binding signal [i.e., mean fluorescence intensity (MFI)] was quantified by flow cytometry (FACSCanto™; Becton Dickinson). Data were analyzed with FlowJo® Software. For all samples the background MFI (i.e., autofluorescence of untreated and unlabeled cells) was subtracted. The percentage inhibition for each compound concentration was calculated relative to the positive control (i.e., untreated cells exposed to CXCL12^AF647 only). Four parameter non-linear curve fitting (GraphPad Prism 9.0.2) was used to determine the IC50 value for binding inhibition.

hACKR3 = hACKR3 (Homo sapiens, UniProt P25106); experiment: CXCL12^AF647 competition binding, U87.CD4.ACKR3 cells
Procedure: as §1

[2] = tested on: fibrosis-associated genes (lung mRNA); experiment: qRT-PCR of fibrosis-associated genes in lung tissue; assay type: in vivo, mouse
Procedure: Total RNA was prepared from snap-frozen liver tissue (the lateral and medial right lobes and the caudate lobe; Supplementary Figure S1a) or lung tissue (cranial right lobe; Supplementary Figure S1b) after homogenization on ice in TRIZol. For quantitative qRT-PCR, cDNA was made from 0.5 μg of RNA using the GoScript reverse transcription system (Promega) according to the manufacturer’s protocol. QRT-PCR was performed (for 40 cycles) with the Quantstudio3 Applied Biosystems (ABI) system using Sybr green (ABI) followed by melting curve analysis. Expression was calculated using the delta threshold cycle (ΔCT) method with Gapdh as reference gene (previously validated as stable house-keeping gene in the CCl4 model and in the bleomycin model, current study, not shown). Forward (F) and reverse (R) primer sequences were (5’-3’): Gapdh: F: ccgcatcttcttgtgcagt, R: […]; Col1a1: F: […], R: […]; Ackr3: F: […], R: […]; Cxcr4: F: […], R: […]; Golm1: F: […], R: […]; Lgals3: F: […], R: […]; Unc93b1: F: […], R: […]; Slc15a3: F: […], R: […]; Sec24d: F: […], R: […]; Cxcl10: F: […], R: […]; and Clec4n: F: […], R: […]. Data are expressed as mean ± sem. […] The scaled counts were base log2-transformed and data were expressed as fold-change versus the reference condition (CCl4 + 23% HPBCD). […]

hACKR3, sequence (P25106 whole entry): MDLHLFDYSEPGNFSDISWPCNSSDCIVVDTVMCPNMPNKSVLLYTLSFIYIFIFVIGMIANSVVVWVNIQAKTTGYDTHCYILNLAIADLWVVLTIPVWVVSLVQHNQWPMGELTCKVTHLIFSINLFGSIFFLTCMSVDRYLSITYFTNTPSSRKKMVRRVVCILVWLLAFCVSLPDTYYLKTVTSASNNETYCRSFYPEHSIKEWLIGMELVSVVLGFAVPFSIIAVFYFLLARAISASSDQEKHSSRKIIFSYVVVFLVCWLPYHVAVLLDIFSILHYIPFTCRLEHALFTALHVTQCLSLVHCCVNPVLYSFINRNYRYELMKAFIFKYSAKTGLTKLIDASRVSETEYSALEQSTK
hCXCR4, sequence (P61073 whole entry): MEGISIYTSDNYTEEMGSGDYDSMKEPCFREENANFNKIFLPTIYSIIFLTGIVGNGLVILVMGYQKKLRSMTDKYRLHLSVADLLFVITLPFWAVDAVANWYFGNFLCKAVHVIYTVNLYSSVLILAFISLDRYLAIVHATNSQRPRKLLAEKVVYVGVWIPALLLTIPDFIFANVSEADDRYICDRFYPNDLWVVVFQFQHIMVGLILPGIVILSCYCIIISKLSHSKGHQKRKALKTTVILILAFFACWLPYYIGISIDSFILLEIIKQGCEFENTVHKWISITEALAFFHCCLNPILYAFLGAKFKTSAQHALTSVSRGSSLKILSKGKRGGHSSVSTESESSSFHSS
T1 sequence (P51681 whole entry): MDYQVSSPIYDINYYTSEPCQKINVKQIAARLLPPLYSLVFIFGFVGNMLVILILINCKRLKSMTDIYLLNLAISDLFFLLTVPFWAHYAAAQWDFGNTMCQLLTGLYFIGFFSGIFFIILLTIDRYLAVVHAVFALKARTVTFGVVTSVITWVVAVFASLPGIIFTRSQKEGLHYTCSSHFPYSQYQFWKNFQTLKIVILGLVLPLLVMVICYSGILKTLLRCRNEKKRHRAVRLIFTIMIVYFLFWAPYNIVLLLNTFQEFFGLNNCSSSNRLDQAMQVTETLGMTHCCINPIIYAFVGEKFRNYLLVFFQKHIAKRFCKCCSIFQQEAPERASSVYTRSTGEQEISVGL

Q: For CCc1ccn2ccnc2c1N1CCCN(C(CC(N)=O)C2CCN(C(=O)C3CC4CCC3O4)CC2)CC1 (stereo not shown) [compound 18a], which IC50 (hCCR5) is on record?
A: > 40 µM

Q: What about the “free fraction in mouse plasma” value [1] of the same compound?
A: 34%

Q: And the IC50 (hCXCR4)?
A: > 4 µM

Q: And the IC50 (hACKR3; hACKR3, mean ± SD of three independent experiments)?
A: 0.0205 ± 0.00634 µM

Q: What about the “higher hACKR3 binding affinity compared to compound 18b” value (hACKR3; ratio of IC50 values) of the same compound?
A: five-fold

Q: And the “Lgals3 expression in lung tissue” value ([2]; bleomycin model, day 21, qRT-PCR)?
A: similarly lowered

Q: What about the “number of these 8 genes similarly affected in lung” value ([2]; bleomycin-exposed lungs, day 21) of the same compound?
A: 1
